Data on 28 compounds can be found in US11203600B2 (Denali Therapeutics Inc., priority 2017, dated 2021).

The target of the first experiment is GST-hRIPK1 (8-327) (Homo sapiens (Human), UniProt Q13546). Briefly: Fluorescent Polarization Binding (FP Binding) assay, RIPK1. As to conditions: 10 nM GST-hRIPK1 (8-327), 5 nM fluorescent-labeled ligand, RT, 30 min, mean of at least two independent experiments. On the procedure: Fluorescent Polarization Binding (FP Binding) assay (Berger S. B. et al. (2015) Cell Death Discovery, 1: 15009; Maki J. L. et al. (2012) Anal Biochem., 427(2): 164-174) was performed in polystyrene low volume 384-well black plate, at RT in a final volume of 10.1 μl/well using 10 nM of GST-hRIPK1 (8-327) enzyme and 5 nM of fluorescent-labeled ligand (14-(2-{[3-({2-{[4-(cyanomethyl)phenyl]amino]-6-[(5-cyclopropyl-1H-pyrazol-3-yl)amino]-4-pyrimidinyl}amino) propyl}amino}-2-oxoethyl)-16,16,18,18-tetramethyl-6,7,7a,8a,9,10,16,18-octahydrobenzo [2″,3″]indolizino[8″,7″:5′,6′]pyrano [3′,2′:3,4]pyrido[1,2-a]indo1-5-ium-2-sulfonate.
Chain of GST-hRIPK1 (8-327) (Q13546 8-327): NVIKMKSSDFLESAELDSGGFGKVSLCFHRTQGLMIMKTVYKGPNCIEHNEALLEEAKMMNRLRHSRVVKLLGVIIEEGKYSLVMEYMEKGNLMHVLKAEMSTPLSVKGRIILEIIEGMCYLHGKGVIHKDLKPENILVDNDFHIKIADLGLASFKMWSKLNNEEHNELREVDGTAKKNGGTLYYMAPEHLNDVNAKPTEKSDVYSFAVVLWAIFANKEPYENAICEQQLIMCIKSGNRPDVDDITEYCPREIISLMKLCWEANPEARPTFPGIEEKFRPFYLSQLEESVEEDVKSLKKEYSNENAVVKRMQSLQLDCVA
Test compounds were serially diluted in DMSO at 100 fold final concentrations in the assay (1% DMSO final). In each well of a 384-well Plate were dispensed 0.1 μL of compound solution (or DMSO for controls) followed by 5 μL of GST-hRIPK1 (8-327) at twice the final concentrations in assay buffer (50 mM HEPES pH 7.5, 10 mM NaCl, 50 mM MgCl2, 0.02% CHAPS, 0.5 mM DTT and 0.01% Pluronic F127). For negative control the enzyme addition was replaced by assay buffer only.
After addition of 5 μL of fluorescentlabeled ligand at twice the final concentrations in assay buffer, the plate was incubated at RT for […]. At the end, the binding was measured as FP value with the Envision (PerkinElmer) plate reader using filter for an excitation λ=531 nm FP and an emission λ=595 nm FP (S & P-pol). GST-hRIPK1 (8-327) enzyme was produced via Baculovirus expression.
Test compound inhibition was expressed as percent inhibition of internal assay controls. For concentration response curves, normalized data is fit and IC50 determined using XL-fit (IDBS) for Excel. The IC50 values were averaged to determine a mean value, for a minimum of two independent experiments. Results are shown in Table 2 (RIPK1 IC50) values: +++=0.1 nM<IC50<100 nM; ++=100 nM<IC50<1 μM; +=1 μM<IC50).
One may read the IC50 as the point on the concentration scale where inhibition reaches its midpoint. Low values mean greater potency in that assay, high ones weaker potency in that assay. `C[C@@H]1COc2c(C#N)cncc2CN1C(=O)C(C)(C)CF` [Example 77, (3R)-4-(3-fluoro-2,2-dimethyl-propanoyl)-3-methyl-3,5-dihydro-2H-pyrido[3,4-f][1,4]oxazepine-9-carbonitrile] gave an IC50 of 0.1 to 100 nM.
As to `N#Cc1cncc2c1OCCN(C(=O)C1(F)CCN(c3ccnc4ccnn34)CC1)C2` [Example 110, 4-(4-fluoro-1-(pyrazolo[1,5-a]pyrimidin-7-yl)piperidine-4-carbonyl)-2,3,4,5-tetrahydropyrido[3,4-f][1,4]oxazepine-9-carbonitrile], the IC50 fell in the range of 0.1 to 100 nM.
Still for that read-out and setting: next, `N#Cc1ccnc(N2CCC(F)(C(=O)N3CCOc4c(F)cncc4C3)CC2)n1` [Example 160, 2-[4-fluoro-4-(9-fluoro-3,5-dihydro-2H-pyrido[3,4-f][1,4]oxazepine-4-carbonyl)-1-piperidyl]pyrimidine-4-carbonitrile]: 100 to 1000 nM.
As for `N#Cc1cncc2c1OCCN(C(=O)C1(C(F)F)CC1)C2` [Example 139, 4-[1-(difluoromethyl)cyclopropanecarbonyl)-3,5-dihydro-2H-pyrido[3,4-f][1,4]oxazepine-9-carbonitrile], the half-inhibitory concentration (IC50) is above 1000 nM.
On the same count and under the same terms, for `COC1(C(=O)N2CCOc3c(C#N)cncc3C2)CCN(c2ncc(F)cn2)CC1` [Example 185, 4-[1-(5-fluoropyrimidin-2-yl)-4-methoxy-piperidine-4-carbonyl]-3,5-dihydro-2H-pyrido[3,4-f][1,4]oxazepine-9-carbonitrile] the value was 0.1 to 100 nM; for `N#Cc1cncc2c1OCCN(C(=O)C1(C3CC3)CC1)C2` [Example 46, 4-(1-cyclopropylcyclopropanecarbonyl)-3,5-dihydro-2H-pyrido[3,4-f][1,4]oxazepine-9-carbonitrile], 100 to 1000 nM; for `N#Cc1cncc2c1OCCN(C(=O)C1(F)CCN(c3ncc(C4CC4)cn3)CC1)C2` [Example 100, 4-[1-(5-cyclopropylpyrimidin-2-yl)-4-fluoro-piperidine-4-carbonyl]-3,5-dihydro-2H-pyrido[3,4-f][1,4]oxazepine-9-carbonitrile], 100 to 1000 nM.
The same measure, in the same setting: next, `CC(C)(C(=O)N1CCOc2c(cnc(Cl)c2C#N)C1)C(F)F` [Example 59, 8-chloro-4-(3,3-difluoro-2,2-dimethyl-propanoyl)-3,5-dihydro-2H-pyrido[3,4-f][1,4]oxazepine-9-carbonitrile]: 100 to 1000 nM; `N#Cc1cncc2c1OCCN(C(=O)C1(F)CCN(c3ncc(F)c(OCC(F)F)n3)CC1)C2` [Example 125, 4-[1-[4-(2,2-difluoroethoxy)-5-fluoro-pyrimidin-2-yl]-4-fluoro-piperidine-4-carbonyl]-3,5-dihydro-2H-pyrido[3,4-f][1,4]oxazepine-9-carbonitrile]: 0.1 to 100 nM; `CC(C)(C(=O)N1CCOc2c(C#N)ccc(F)c2C1)C(F)F` [Example 2, 4-(3,3-difluoro-2,2-dimethyl-propanoyl)-6-fluoro-3,5-dihydro-2H-1,4-benzoxazepine-9-carbonitrile]: 0.1 to 100 nM.
Same read-out and setting: next, `CC(C)(CC(F)F)C(=O)N1CCOc2c(C#N)cncc2C1` [Example 149, 4-(4,4-difluoro-2,2-dimethyl-butanoyl)-3,5-dihydro-2H-pyrido[3,4-f][1,4]oxazepine-9-carbonitrile]: 100 to 1000 nM; `COC1(C(=O)N2Cc3cncc(C#N)c3OC[C@H]2C)CCN(c2ncc(F)cn2)CC1` [Example 105, (3R)-4-[1-(5-fluoropyrimidin-2-yl)-4-methoxy-piperidine-4-carbonyl]-3-methyl-3,5-dihydro-2H-pyrido[3,4-f][1,4]oxazepine-9-carbonitrile]: 0.1 to 100 nM.
`Cc1cc(C(F)(F)F)nc(N2CCC(F)(C(=O)N3CCOc4c(C#N)cncc4C3)CC2)n1` [Example 168, 4-[4-fluoro-1-[4-methyl-6-(trifluoromethyl)pyrimidin-2-yl]piperidine-4-carbonyl]-3,5-dihydro-2H-pyrido[3,4-f][1,4]oxazepine-9-carbonitrile]: the concentration for half-maximal inhibition (IC50) lay in the range of 100 to 1000 nM.
Same read-out and setting: next, `COc1nc(N2CCC(F)(C(=O)N3CCOc4c(C#N)cncc4C3)CC2)ncc1Cl` [Example 128, 4-[1-(5-chloro-4-methoxy-pyrimidin-2-yl)-4-fluoro-piperidine-4-carbonyl]-3,5-dihydro-2H-pyrido[3,4-f][1,4]oxazepine-9-carbonitrile]: 0.1 to 100 nM; `C[C@@H]1COc2c(C#N)cncc2CN1C(=O)C(C)(C)C(F)F` [Example 52, (3R)-4-(3,3-difluoro-2,2-dimethyl-propanoyl)-3-methyl-3,5-dihydro-2H-pyrido[3,4-f][1,4]oxazepine-9-carbonitrile]: 0.1 to 100 nM; `N#Cc1cncc2c1OCCN(C(=O)C1(F)CCN(c3ncc(F)cn3)CC1)C2` [Example 161, 4-[4-fluoro-1-(5-fluoropyrimidin-2-yl)piperidine-4-carbonyl]-3,5-dihydro-2H-pyrido[3,4-f][1,4]oxazepine-9-carbonitrile]: 0.1 to 100 nM.
Still for that read-out and setting: next, `CC(C#N)C(C)(C)C(=O)N1CCOc2c(F)cncc2C1` (stereo not shown) [Example 71, 4-(9-fluoro-2,3-dihydropyrido[3,4-f][1,4]oxazepin-4(5H)-yl)-2,3,3-trimethyl-4-oxobutanenitrile]: above 1000 nM; `CC(C)(CC#N)C(=O)N1CCOc2c(C#N)cccc2C1` [Example 25, 4-(3-cyano-2,2-dimethyl-propanoyl)-3,5-dihydro-2H-1,4-benzoxazepine-9-carbonitrile]: 0.1 to 100 nM.
Still for that read-out and setting: next, `CC(CF)(CF)C(=O)N1CCOc2c(C#N)cncc2C1` [Example 147, 4-[3-fluoro-2-(fluoromethyl)-2-methyl-propanoyl]-3,5-dihydro-2H-pyrido[3,4-f][1,4]oxazepine-9-carbonitrile]: 0.1 to 100 nM; `CC(C)(C(=O)N1CCOc2c(C#N)cncc2C1)C1CN(c2ncc(F)cn2)C1` [Example 85, 4-[2-[1-(5-fluoropyrimidin-2-yl)azetidin-3-yl]-2-methyl-propanoyl]-3,5-dihydro-2H-pyrido[3,4-f][1,4]oxazepine-9-carbonitrile]: 100 to 1000 nM; `CC(C)(C(=O)N1CCOc2cccc(C#N)c2C1)C(F)F` [Example 27, 4-(3,3-difluoro-2,2-dimethyl-propanoyl)-3,5-dihydro-2H-1,4-benzoxazepine-6-carbonitrile]: above 1000 nM.
On to `CC1CC(C(=O)N2CCOc3c(C#N)cncc3C2)CCN1c1ncc(F)cn1` (stereo not shown) [Example 91, 4-[1-(5-fluoropyrimidin-2-yl)-2-methyl-piperidine-4-carbonyl]-3,5-dihydro-2H-pyrido[3,4-f][1,4]oxazepine-9-carbonitrile], for which the half-inhibitory concentration (IC50) was in the range of 100 to 1000 nM.

The experiment is the same for the next values; noted with them: GST-hRIPK1 (8-327), mean of at least two independent experiments.
As for `Cn1nccc(N2CCC(C(=O)N3CCOc4c(C#N)cncc4C3)[C@@H](F)C2)c1=O` (stereo partly drawn) [Example 224, 4-[(3,4)-trans-3-fluoro-1-(2-methyl-3-oxo-pyridazin-4-yl)piperidine-4-carbonyl]-3,5-dihydro-2H-pyrido[3,4-f][1,4]oxazepine-9-carbonitrile], the IC50 is above 1000 nM.
Still for that read-out and setting: for `CCC(C)(CC#N)C(=O)N1CCOc2c(C#N)cncc2C1` (single isomer, unassigned) [Example 264, 4-[2-(Cyanomethyl)-2-methyl-butanoyl]-3,5-dihydro-2H-pyrido[3,4-f][1,4]oxazepine-9-carbonitrile] the value was 0.1 to 100 nM; for `N#Cc1cncc2c1OCCN(C(=O)C1CCN(c3nccn4ncnc34)C[C@@H]1F)C2` (stereo partly drawn) [Example 225, 4-[(3,4)-trans-3-fluoro-1-([1,2,4]triazolo[1,5-a]pyrazin-8-yl)piperidine-4-carbonyl]-3,5-dihydro-2H-pyrido[3,4-f][1,4]oxazepine-9-carbonitrile], 0.1 to 100 nM; for `CC(F)(F)C(C)(C(=O)N1CCOc2c(C#N)cncc2C1)C(F)F` (stereo not shown) [Example 269, 4-[2-(difluoromethyl)-3,3-difluoro-2-methyl-butanoyl]-3,5-dihydro-2H-pyrido[3,4-f][1,4]oxazepine-9-carbonitrile], 100 to 1000 nM.
Same read-out and setting: for `CC(F)C(C)(C)C(=O)N1CCOc2c(C#N)cncc2C1` (single isomer, unassigned) [Example 272, 4-(3-Fluoro-2,2-dimethyl-butanoyl)-3,5-dihydro-2H-pyrido[3,4-f][1,4]oxazepine-9-carbonitrile] the value was 0.1 to 100 nM; for `CC1(C(=O)N2CCOc3c(C#N)cncc3C2)CCCCO1` (stereo not shown) [Example 240, 4-(2-methyltetrahydropyran-2-carbonyl)-3,5-dihydro-2H-pyrido[3,4-f][1,4]oxazepine-9-carbonitrile], 100 to 1000 nM.
